# How the values were obtained:
# solubility in solvents = type: physicochemical
# uninfected CEM cells = conditions: human, 7200 min
# Method: The cells and the virus were grown in LAV/CEM medium. The medium consists of RPMI 1640, supplemented with 1% L-glutamine, 100 U/ml of Penicillin, 100 μg/ml Streptomycin, 2 μg/ml Polybrene and 10% heat-inactivated fetal bovine serum (HyClone Labs).
# The toxicities of the drugs were tested against uninfected CEM cells. The CEM cells were plated as described above, and culture for five days in the presence or absence of drugs. On day five 1 μCi/well of ^3 H-thymidine was added, and cells were harvested 3 hours later. The results are expressed as toxic dose 50 (TD50) and represent the amount of drug necessary to reduce the cell proliferation by 50% as measured through thymidine incorporation.
# CEM-SS cells = experiment: cellular toxicity in CEM-SS cells, XTT assay; type: cell-based; conditions: human, 144 h
# Text: CEM-SS cells were obtained from Owen Weislow at the National Cancer Institute.
# [1] = system: reverse transcriptase (RTase) derived from avian myeloblastosis virus (AMV); type: biochemical; conditions: concentrations higher than 3 μg/ml; 1 unit of AMV RTase
# [2] = system: human immunodeficiency virus (HIV) LAV/BRU; conditions: CEM-F cells; reduces viral replication by 50%
# Method: AZT was included as a reference compound. The methodology used in this assay is described below:
# The cells and the virus were grown in LAV/CEM medium. The medium consists of RPMI 1640, supplemented with 1% L-glutamine, 100 U/ml of Penicillin, 100 μg/ml Streptomycin, 2 μg/ml Polybrene and 10% heat-inactivated fetal bovine serum (HyClone Labs). […] The LAV/BRU of human immunodeficiency virus (HIV) was obtained from Dr. L. Montagnier, Institute Pasteur, Paris, France. The virus was adapted to CEM cells, and infectious virus stocks were stored as cell-free supernatant fluids in 1 ml aliquots in liquid nitrogen. The titer of the stock was determined by an end point titration method using CEM cells in 96-well microtiter plates. The titration was done with ten replicates for each point, and the 50% tissue culture infective dose (TCID50) was calculated using the method of Reed and Muench (Amer. J. Hygiene, 27/3 (1938) 493-497).
# 25 The CEM cells (1.5×10^5 cells/ml) were placed in 96-well plates and incubated with virus for 45 minutes. After 45 minutes each compound was added in quadruplicate. […] The OD readings (absorbance at 450/630 nm) fall into three categories: Experimentals=values from wells containing cells, viral inoculum and drug; Controls=values from wells with cells and virus (100%); and Background=values from wells with viral inoculum alone. […]
# HIV antigen = experiment: expression of HIV antigen in infected MT-4 cells by immunofluorescence; type: cell-based; conditions: HIV-infected MT-4 cells; concentration higher than 50 μg/ml
# Method: Expression of HIV antigen was examined by immunofluorescence. When MT-4 cells were infected with HIV, viral antigen positive cells increased with incubation time and all the cells became positive on day 6 after infection.
SMILES,solubility in dimethylformamide and dimethyl sulfoxide (solubility in solvents),"TD50, thymidine incorporation (uninfected CEM cells) [µg]","TD50, XTT assay (CEM-SS cells) [µg/mL]",inhibition of AMV RTase activity [1],"ED50, p24gag antigen capture assay [2] [µg]",HIV antigen positive cells (HIV antigen)
C/C1=C\C=C\C2(C)C=C(CO[C@H]3O[C@H](CO)[C@H](O)[C@H](O)[C@H]3O)C(C)CC23OC(O)C(C3=O)C(O)/C=C/C2(C)C=C(C=O)C(C)CC23OC(O)C(C3=O)C(O)/C(C)=C/C=C/C2C=C(CO[C@H]3O[C@H](CO)[C@H](O)[C@H](O)[C@H]3O)C(C)CC23OC(O)C(C3=O)C(O)/C=C/C2(C)C=C(C=O)C(C)CC23OC(O)C(C3=O)C1O (some centres unmarked),soluble,> 100,300,more than 95%,3.2,less than 1%
C/C1=C\C=C\C2C=C(CO[C@H]3O[C@H](CO)[C@H](O)[C@H](O)[C@H]3O)C(C)CC23OC(O)C(C3=O)C(O)/C=C/C2(C)C=C(CO)C(C)CC23OC(O)C(C3=O)C(O)/C(C)=C/C=C/C2(C)C=C(CO[C@H]3O[C@H](CO)[C@H](O)[C@H](O)[C@H]3O)C(C)CC23OC(O)C(C3=O)C(O)/C=C/C2(C)C=C(C=O)C(C)CC23OC(O)C(C3=O)C1O (some centres unmarked),soluble,> 100,200,–,2.5,–
"Cc1cn([C@H]2C[C@H](N=[N+]=[N-])[C@@H](CO)O2)c(=O)[nH]c1=O [AZT, reference compound]",–,4.2,–,–,–,–

# From patent publication US5124150A
